Where two headings read alike, the source gives them in different places.
Tests used:
[1] = system: PRMT5-dependent Symmetric Di-methyl Arginine signal in HCT116 homozygous MTAP knockout cells; assay: SYM11 In-Cell Western, HCT116 MTAP knockout; format: cell-based; conditions: HCT116 homozygous MTAP knockout cells, 4 days of treatment, SYM11/DRAQ5 ratio, read-out: In-cell-Western (SYM11) HCT116 MTAP_KO IC50
Procedure: (§1) 1. HCT116 MTAP Knockout Model
(§2) HCT116 cells were genetically engineered to knock out the function of both MTAP alleles using a CRISPR/Cas9 system and an sgRNA targeting the MTAP gene. Following Cas9/MTAP sgRNA transduction, clones were screened to confirm that each allele of the MTAP gene had been inactivated (i.e., homozygous MTAP knock out) creating an MTAP-deficient cell.
(§3) Control samples were analyzed in parallel.
Briefly, on Day 0, 2,000 HCT116 parental or HCT116 homozygous MTAP knockout cells were seeded in 96 well plates in McCoy's 5A supplemented with 10% fetal bovine serum and pen/strep and the cells were incubated overnight at 37° C. plus 5% CO2. The following day, cells were treated with DMSO vehicle control or a dose response of PRMT5 inhibitors, and incubated at 37° C. plus 5% CO^2 for four days.
After 4 days of treatment, the cells were fixed by adding 50 μl of 4% paraformaldehyde solution to each well and the cells were incubated for 20 min at room temperature. The paraformaldehyde solution was removed, 150 μl of ice-cold methanol was added and the plate was placed −20° C. for 10 minutes. The methanol was removed, 150 μl of Odyssey Blocking buffer+0.05% Tween20 was added and the plate was incubated at room temperature with shaking for one hour.
The primary SYM11 antibody solution was removed by aspiration and the wells were washed three consecutive times with phosphate buffered saline containing 0.1% Tween-20 (PBST).
The secondary antibody solution was removed by aspiration and the wells were washed three consecutive times with PB ST.
The SYM11 signal and the DRAQ5 signal were quantified using a Li-Cor Odyssey machine reading at […], respectively. The SYM11/DRAQ5 ratio was used to calculate the inhibition of Symmetric Dimethyl Arginine as percent of DMSO control.

PRMT5/MEP50 complex = PRMT5/MEP50 complex (Homo sapiens (Human), UniProt O14744); assay: PRMT5:MEP50 HotSpot Assay (full-length histone H2A substrate, plus and minus MTA); format: biochemical; conditions: in the presence of 2 μM MTA
Chain of PRMT5/MEP50 complex (O14744 2-637): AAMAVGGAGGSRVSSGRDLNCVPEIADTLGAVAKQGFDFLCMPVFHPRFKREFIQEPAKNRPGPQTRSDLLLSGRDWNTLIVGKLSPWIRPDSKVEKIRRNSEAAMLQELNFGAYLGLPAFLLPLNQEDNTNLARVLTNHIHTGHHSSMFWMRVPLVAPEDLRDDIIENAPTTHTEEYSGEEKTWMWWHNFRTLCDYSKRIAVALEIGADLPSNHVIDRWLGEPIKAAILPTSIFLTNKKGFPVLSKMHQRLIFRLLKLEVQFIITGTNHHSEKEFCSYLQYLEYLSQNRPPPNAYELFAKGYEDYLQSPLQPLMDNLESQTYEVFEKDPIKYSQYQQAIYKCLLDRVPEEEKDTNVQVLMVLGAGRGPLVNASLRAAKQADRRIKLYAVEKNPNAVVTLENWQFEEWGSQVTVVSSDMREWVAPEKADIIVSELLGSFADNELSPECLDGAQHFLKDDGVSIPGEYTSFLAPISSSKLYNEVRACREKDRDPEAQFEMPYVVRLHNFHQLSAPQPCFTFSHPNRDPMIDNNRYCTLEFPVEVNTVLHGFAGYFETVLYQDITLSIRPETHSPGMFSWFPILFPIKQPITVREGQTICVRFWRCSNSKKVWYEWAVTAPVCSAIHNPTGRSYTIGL
Chain of PRMT5/MEP50 complex (Q9BQA1 2-342 partner): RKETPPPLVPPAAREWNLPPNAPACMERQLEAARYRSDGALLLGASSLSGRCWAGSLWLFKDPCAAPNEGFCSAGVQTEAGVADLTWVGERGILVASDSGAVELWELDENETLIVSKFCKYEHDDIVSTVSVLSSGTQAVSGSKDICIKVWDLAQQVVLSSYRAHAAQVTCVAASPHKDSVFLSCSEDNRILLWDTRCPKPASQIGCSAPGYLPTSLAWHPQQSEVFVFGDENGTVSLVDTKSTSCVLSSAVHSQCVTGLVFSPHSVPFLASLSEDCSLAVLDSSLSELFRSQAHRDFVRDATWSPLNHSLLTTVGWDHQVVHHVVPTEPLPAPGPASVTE
Procedure: The PRMT5 inhibitory activity of compounds of the present invention was determined using either a PRMT5:MEP50 FlashPlate Assay (Reaction Biology Corporation) or a PRMT5:MEP50 HotSpot Assay (Reaction Biology Corporation).
The assay uses recombinant full-length histone H2A as the PRMT5 substrate. […] The reaction was stopped and transferred to filter paper for detection. The amount of tritiated H2A in each sample was determined using a scintillation counter.

[2] = system: HCT116 homozygous MTAP knockout cells; assay: Proliferation assay (CellTiter-Glo, 10 days of treatment), HCT116 MTAP knockout; format: cell-based; conditions: read-out: Proliferation HCT116MTAP_KO IC50
Procedure: as §1, §2, §3
Briefly, on Day 0, 250 HCT116 parental or HCT116 homozygous MTAP knockout cell were seeded in 96 well plates in McCoy's 5A supplemented with 10% fetal bovine serum and pen/strep and the cells were incubated overnight at 37° C. plus 5% CO2.
The following day, cells were treated with DMSO vehicle control or a dose response of PRMT5 inhibitors and incubated at 37 C plus 5% CO2 for five days. On Day 6, the cells were trypsinized and split 1:10 into new 96-well plates with fresh medium containing the same concentration of PRMT5 inhibitor and incubated for an additional 5 days at 37° C. plus 5% CO^2.
On Day 11, the viability of the cells was measured using a CTG assay kit (CellTiter-Glo; Promega cat.no G7573) in accordance with the manufacturer's instructions. The IC50 values for each compound after 10 days of treatment were calculated using GraphPad PRISM software.

SMILES	IC50 [1]	IC50 (PRMT5/MEP50 complex; IC50 + 2 μM MTA)	IC50 [2]	IC50 (PRMT5/MEP50 complex; read-out: IC50 + 2 μM MTA)	IC50 ([1]; Homo sapiens, HCT-116, 96 h)	IC50 ([2]; Homo sapiens, HCT-116, 240 h)
CC(N)c1n[nH]c(=O)c2ccc(-c3cnn(C)c3-c3cccc(Cl)c3C#N)cc12 (single isomer, unassigned) [Example 9-3, 2-[4-[4-(1-aminoethyl)-1-oxo-2H-phthalazin-6-yl]-2-methyl-pyrazol-3-yl]-6-chloro-benzonitrile]	141 nM	1270 nM	4820 nM	–	–	–
Cn1ncc(-c2ccc3c(=O)[nH]nc(CN)c3c2)c1-c1c(C#N)cc2ccccc2c1Cl (single isomer, unassigned) [Example 16-5]	272 nM	–	2850 nM	994 nM	–	–
Cn1ncc(-c2ccc3c(=O)[nH]nc(CN)c3c2)c1-c1ccc2ccccc2c1Cl [Example 4-181, 4-(aminomethyl)-6-(5-(1-chloronaphthalen-2-yl)-1-methyl-1H-pyrazol-4-yl)phthalazin-1(2H)-one]	–	401 nM	–	–	25 nM	450 nM
Cn1ncc(-c2c(-c3ccc4c(=O)[nH]nc(CN)c4c3)cnn2C)c1Cl [Example 4-185, 4-(aminomethyl)-6-(5′-chloro-1′,2-dimethyl-1′H,2H-[3,4′-bipyrazol]-4-yl)phthalazin-1(2H)-one]	–	1160 nM	–	–	167 nM	3020 nM
NCc1n[nH]c(=O)c2ccc(-c3cnc4ccc(-c5ccccc5)nn34)cc12 [Example 4-191, 4-(aminomethyl)-6-(6-phenylimidazo[1,2-b]pyridazin-3-yl)phthalazin-1(2H)-one]	–	612 nM	–	–	911 nM	1520 nM
Cn1ncc(-c2ccc3c(=O)[nH]nc(CN)c3c2)c1-c1cccc2c1COC2 [Example 4-220, 4-(aminomethyl)-6-(5-(1,3-dihydroisobenzofuran-4-yl)-1-methyl-1H-pyrazol-4-yl)phthalazin-1(2H)-one]	–	567 nM	–	–	212 nM	5160 nM
Cn1ncc(-c2cc(C(F)(F)F)c3c(=O)[nH]nc(CN)c3c2)c1-c1ccc2ccccc2c1C#N [Example 10-13, 2-(4-(4-(aminomethyl)-1-oxo-8-(trifluoromethyl)-1,2-dihydrophthalazin-6-yl)-1-methyl-1H-pyrazol-5-yl)-1-naphthonitrile]	–	–	–	–	16 nM	85 nM
Cc1cc(OC2CC2)c(C#N)c(-c2c(-c3cc(Cl)c4c(=O)[nH]nc(CN)c4c3)cnn2C)c1 [Example 10-19, 2-(4-(4-(aminomethyl)-8-chloro-1-oxo-1,2-dihydrophthalazin-6-yl)-1-methyl-1H-pyrazol-5-yl)-6-cyclopropoxy-4-methylbenzonitrile]	–	–	–	–	185 nM	312 nM
Cc1cc(OC2CC2)c(C#N)c(-c2c(-c3cc(Cl)c4c(=O)[nH]nc(CN)c4c3)cnn2C)c1F [Example 10-20, 2-(4-(4-(aminomethyl)-8-chloro-1-oxo-1,2-dihydrophthalazin-6-yl)-1-methyl-1H-pyrazol-5-yl)-6-cyclopropoxy-3-fluoro-4-methylbenzonitrile]	–	–	–	–	29 nM	35 nM
Cc1c(-c2c(-c3ccc4c(=O)[nH]nc(CN)c4c3)cnn2C)ccc2ccccc12 [Example 12-12, 4-(aminomethyl)-6-[1-methyl-5-(1-methyl-2-naphthyl)pyrazol-4-yl]-2H-phthalazin-1-one]	–	–	–	–	26 nM	240 nM
Cc1cc2ccccc2c(C#N)c1-c1c(-c2ccc3c(=O)[nH]nc(CN)c3c2)cnn1C [Example 12-15, 2-[4-[4-(aminomethyl)-1-oxo-2H-phthalazin-6-yl]-2-methyl-pyrazol-3-yl]-3-methyl-naphthalene-1-carbonitrile]	–	–	–	–	189 nM	261 nM
Cc1cnc2ccc(-c3c(-c4ccc5c(=O)[nH]nc(CN)c5c4)cnn3C)c(C#N)c2c1 [Example 12-17, 6-[4-[4-(aminomethyl)-1-oxo-2H-phthalazin-6-yl]-2-methyl-pyrazol-3-yl]-3-methyl-quinoline-5-carbonitrile]	–	–	–	–	10 nM	85 nM
Cc1cc(OC2CC2)c(C#N)c(-c2c(-c3ccc4c(=O)[nH]nc(CN)c4c3)cnn2C)c1 [Example 12-18, 2-(4-(4-(aminomethyl)-1-oxo-1,2-dihydrophthalazin-6-yl)-1-methyl-1H-pyrazol-5-yl)-6-cyclopropoxy-4-methylbenzonitrile]	–	–	–	–	10 nM	104 nM
CCOc1cc(-c2cnn(C)c2-c2ccc3ccccc3c2C#N)cc2c(CN)n[nH]c(=O)c12 [Example 13-2, 2-[4-[4-(aminomethyl)-8-ethoxy-1-oxo-2H-phthalazin-6-yl]-2-methyl-pyrazol-3-yl]naphthalene-1-carbonitrile]	–	–	–	–	64 nM	149 nM
CCOc1cc2ccccc2c(C#N)c1-c1c(-c2cc(OCC)c3c(=O)[nH]nc(CN)c3c2)cnn1C [Example 13-3, 2-[4-[4-(aminomethyl)-8-ethoxy-1-oxo-2H-phthalazin-6-yl]-2-methyl-pyrazol-3-yl]-3-ethoxy-naphthalene-1-carbonitrile]	–	–	–	–	298 nM	565 nM

Now from value to compound:

IC50 [1]	IC50 (PRMT5/MEP50 complex; IC50 + 2 μM MTA)	IC50 [2]	IC50 (PRMT5/MEP50 complex; read-out: IC50 + 2 μM MTA)	IC50 ([1]; Homo sapiens, HCT-116, 96 h)	IC50 ([2]; Homo sapiens, HCT-116, 240 h)	SMILES
20 nM	–	64 nM	28 nM	–	–	Cn1ncc(-c2ccc3c(=O)[nH]nc(CN)c3c2)c1-c1c(C#N)cc2ccccc2c1Cl (single isomer, unassigned) [Example 16-6]
–	2770 nM	–	–	324 nM	897 nM	Cn1ncc(-c2ccc3c(=O)[nH]nc(CN)c3c2)c1CC(C#N)c1ccccc1 (stereo not drawn) [Example 4-183, 3-(4-(4-(aminomethyl)-1-oxo-1,2-dihydrophthalazin-6-yl)-1-methyl-1H-pyrazol-5-yl)-2-phenylpropanenitrile]
–	2310 nM	–	–	5110 nM	5780 nM	Cn1ncc(-c2c(-c3ccc4c(=O)[nH]nc(CN)c4c3)cnn2C)c1C#N [Example 4-186, 4-(4-(aminomethyl)-1-oxo-1,2-dihydrophthalazin-6-yl)-1′,2-dimethyl-1′H,2H-[3,4′-bipyrazole]-5′-carbonitrile]
–	–	–	–	75 nM	88 nM	Cn1ncc(-c2cc(Cl)c3c(=O)[nH]nc(CN)c3c2)c1-c1cccc(OC2CC2)c1C#N [Example 10-14, 2-(4-(4-(aminomethyl)-8-chloro-1-oxo-1,2-dihydrophthalazin-6-yl)-1-methyl-1H-pyrazol-5-yl)-6-cyclopropoxybenzonitrile]
–	–	–	–	4 nM	13 nM	Cc1cc(-c2cnn(C)c2-c2c(F)cc3ccccc3c2C#N)cc2c(CN)n[nH]c(=O)c12 [Example 10-15, 2-(4-(4-(aminomethyl)-8-methyl-1-oxo-1,2-dihydrophthalazin-6-yl)-1-methyl-1H-pyrazol-5-yl)-3-fluoro-1-naphthonitrile]
–	–	–	–	21 nM	21 nM	Cn1ncc(-c2cc(Cl)c3c(=O)[nH]nc(CN)c3c2)c1-c1c(F)cc2ccccc2c1C#N [Example 10-17, 2-(4-(4-(aminomethyl)-8-chloro-1-oxo-1,2-dihydrophthalazin-6-yl)-1-methyl-1H-pyrazol-5-yl)-3-fluoro-1-naphthonitrile]
0.4 nM	–	73 nM	–	0.5 nM	75 nM	COc1cc2ccccc2c(C#N)c1-c1c(-c2ccc3c(=O)[nH]nc(CN)c3c2)cnn1C [Example 12-16, 2-[4-[4-(aminomethyl)-1-oxo-2H-phthalazin-6-yl]-2-methyl-pyrazol-3-yl]-3-methoxy-naphthalene-1-carbonitrile]
–	–	–	–	96 nM	211 nM	CCc1cc(-c2cnn(C)c2-c2cccc(OC3CC3)c2C#N)cc2c(CN)n[nH]c(=O)c12 [Example 15-2, 2-(4-(4-(aminomethyl)-8-ethyl-1-oxo-1,2-dihydrophthalazin-6-yl)-1-methyl-1H-pyrazol-5-yl)-6-cyclopropoxybenzonitrile]

— US11479551B2, “MTA-cooperative PRMT5 inhibitors” (Mirati Therapeutics, Inc., priority 2019, dated 2022)
